# Source: paper PMC2396520, “Antibody Complementarity-Determining Regions (CDRs) Can Display Differential Antimicrobial, Antiviral and Antitumor Activities” (PLoS ONE, 2008)
# Where a SMILES comes first, the peptide text is derived from it.
# Assays:
# SKmel-25 = type: cell-based, human
# Method: (§1) Murine B16F10-Nex2 melanoma cells (cloned at the Experimental Oncology Unit, Federal University of São Paulo, UNIFESP), and human SKmel28 and SKmel25 human melanoma cell lines originally obtained from the Memorial Sloan Kettering Cancer Center, New York, were cultured at 37°C, under humid atmosphere and 5% CO2, in RPMI-1640 medium with 10 mM N-2-hydroxyethylpiperazine-N2 ethanesulphonic acid (HEPES), 24 mM sodium bicarbonate, 40 mg/L gentamycin, pH 7.2 and 10% FCS.
# (§2) Synthetic CDRs, scrambled peptides (controls), and […] of mAb C7/pc42 H2, selected for the highest cytotoxic activity, were diluted from 1 mM to 0.05 mM in RPMI with 10% FCS and incubated with B16F10-Nex2, SKmel28 and SKmel25 cells (5×10^3 cells/well) in 100 µL per well for 12 h at 37°C. Each peptide was tested in triplicate. After 12 h, the cytotoxic activities of the peptides were determined by measuring cell viability by Trypan Blue exclusion.
# SKmel-28 = type: cell-based, human
# Method: as §1, §2
# Candida albicans UP10 = type: cell-based; details: for Anti-Candida activity (%) at 100 µg/mL: CDR peptides, 100 µg/mL in distilled water, 37°C, 6 h, CFU after 48–72 h, triplicate, C. albicans UP10
# Method: The alanine substituted derivatives (asd), defined according to the position held by the alanine-substituted aminoacid, were tested in the same biological assays to critically establish the functional relevance of each residue [5]. In vitro microbicidal activity of CDR peptides and selected asd against C. albicans UP 10 (clinical isolate from the fungi collection of the University of Parma) and C. albicans NCPF 3153 (National Collection of Pathogenic Fungi, Bristol, UK) were used for the in vitro experiments.
# The microbicidal activity of synthetic CDRs against C. albicans strains was preliminarily evaluated by testing 100 µg/mL of each synthetic peptide by colony forming unit (CFU) assays as previously described [5]. Briefly, 10 µL of a distilled water suspension containing ∼5×10^4/mL germinating yeast cells were added to 90 µL of distilled water containing the synthetic peptide to be tested. Yeast suspensions were incubated at 37°C for 6 h. After incubation, the cell suspensions were plated on Sabouraud dextrose agar, incubated at 30°C and observed for CFU determination after 48–72 hours. Each assay was carried out in triplicate. […] EC50 was calculated by nonlinear regression analysis using Graph Pad Prism 4.01 software, San Diego, CA, USA.
# [1] = system: B16F10-Nex2 murine melanoma cells; type: cell-based; details: 12 h
# HIV-1 IIIB (X4) = test: In vitro exogenous HIV-1 infection of PHA-stimulated PBMCs, IIIB strain (p24 assay); type: cell-based; details: day 10, p24, mean of 3 determinations
# Method: (§3) Briefly, for endogenous HIV-1 replication assays peripheral blood mononuclear cells (PBMCs) from R5 HIV-1-infected patients characterized by high viral RNA titers in plasma and cell-associated viremia were cultured in 96-well plates at 1×10^6 cells/mL in RPMI 1640 medium with 10% fetal calf serum (FCS) and 20 U/mL of rIL-2. Exogenous rIL-2 was added every 3–4 days. Cultures were treated with synthetic mAb CDRs and mAb C7/pc42 H1 asd at 10 µg/mL during the time of culture. Virus production on days 5 and 10 was assayed in the supernatants using ultrasensitive Alliance® HIV-1 p24 ELISA kit (Perkin Elmer); p24 Ag in the supernatants of untreated cultures corresponded to 100% of viral production. For exogenous infection assays, PHA-stimulated PBMCs obtained from healthy individuals were infected with BaL (R5) or IIIB (X4) HIV-1 strain at a median tissue culture infective dose (TCID50) of 500 TCID50/ml. After 2 h of adsorption, the cells were washed, suspended at 2×10^5 cells/ml in medium and cultured in 96-well cultures plates. At time zero of infection, synthetic peptides were added to the cultures at 10 µg/ml and were maintained throughout the experiment. All assays were performed in triplicate. Virus production was assayed 10 days after infection in the supernatants of HIV-1-infected PBMCs by p24 assay.
# HUVEC = test: In vitro Matrigel angiogenesis assay; type: cell-based, human; details: peptides at 1 mM, C7/pc42 H2 at 50 µM; 18 h, 37°C; triplicate wells
# Method: Matrigel™ Matrix (B&D Biosciences, Bedford, MA, USA) was thawed on ice, added (10 µL/well) to coat 96-well plates, and allowed to polymerize for 1 h at 37°C. Human umbilical vein endothelial cells (HUVEC) (5×10^3cells/well) were added alone or mixed with mAb C7 CDR peptides in 100 µL of RPMI medium supplemented with 0.2% of FCS in each well. All peptides were used at 1 mM, with the exception of mAb C7/pc42 H2 that was used at 50 µM. The plates were incubated at 37°C for 18 h and images were captured at 8× magnification with a Sony Cyber-shot camera coupled to a light microscope. The number of pro-angiogenic structures (closed rings formed at a given time by endothelial cell sprouting) was counted from 3 different wells, and the average value determined in each system, [45]. The assay was repeated at least three times.
# R5 HIV-1 = type: cell-based; details: 10 µg/ml; for % inhibitory activity (10 µg/ml), endogenous HIV-1 replication: ex vivo, day 10 of culture, p24, mean of 3 determinations
# Method: as §3
# HIV-1 BaL (R5) = test: In vitro exogenous HIV-1 infection of PHA-stimulated PBMCs, BaL strain (p24 assay); type: cell-based; details: day 10, p24, mean of 3 determinations
# Method: as §3
# C. albicans NCPF 3153 = test: Murine invasive candidiasis, i.p. peptide treatment; type: in vivo, BALB/c mice; details: day 5 post-infection; 200 µg peptide i.p. x3; saline 160.3±46.6
# Method: Animal experiments were approved by the Institutional Review Board of the School of Medicine and Odontology at the University of the Basque Country, Spain. Female BALB/c mice, 8-weeks old (11–12 animals/group), were infected intravenously with 5×10^5 C. albicans NCPF 3153 yeast cells suspended in 0.1 mL saline. Mice were treated i.p. with 200 µg of mAb C7 L1 and mAb C7/pc42 H1 and H2 for 3 days starting on day 0, and 4 h after the fungal challenge, and at 24 and 48 h thereafter. Control mice were injected with saline (same treatment schedule as those treated with the CDRs). Protection was evaluated by monitoring animal survival for 20 days. The mean survival time and numbers of CFU of C. albicans in infected tissues were calculated as reported previously.
# The Kaplan-Meier log rank test was applied to survival data. Data on CFU in infected tissues were analyzed by Student's t test. p values of 0.05 were considered significant.
Compound,cytotoxicity to human melanoma cell line SKmel-25 (SKmel-25),cytotoxicity to human melanoma cell line SKmel-28 (SKmel-28),"EC50 (Candida albicans UP10; UP10, 6 h) [µM]",EC50 [1] [µM],"% inhibitory activity (10 µg/ml), exogenous HIV-1 replication, IIIB (HIV-1 IIIB (X4)) [%]",Anti-Candida activity (%) at 100 µg/mL (Candida albicans UP10) [%],endothelial cell sprouting on Matrigel (HUVEC),"% inhibitory activity (10 µg/ml), endogenous HIV-1 replication (R5 HIV-1) [%]","% inhibitory activity (10 µg/ml), exogenous HIV-1 replication, BaL (HIV-1 BaL (R5)) [%]",CFU counts in kidney tissue (C. albicans NCPF 3153),inhibition of R5 HIV-1 replication in treated cultures (R5 HIV-1; ex vivo conditions) [%]
CC[C@H](C)[C@H](NC(=O)[C@@H](N)Cc1ccc(O)cc1)C(=O)N[C@@H](CO)C(=O)N[C@@H](CS)C(=O)N[C@@H](Cc1ccc(O)cc1)C(=O)N[C@@H](CC(N)=O)C(=O)NCC(=O)N[C@@H](C)C(=O)N[C@H](C(=O)N[C@@H](CO)C(=O)N[C@@H](Cc1ccc(O)cc1)C(=O)N[C@@H](CC(N)=O)C(=O)N[C@@H](CCC(N)=O)C(=O)N[C@@H](CCCCN)C(=O)N[C@@H](Cc1ccccc1)C(=O)N[C@@H](CCCCN)C(=O)O)[C@@H](C)O [C7/pc42 H2] (H-YISCYNGATSYNQKFK-OH),equally cytotoxic,equally cytotoxic,4.19,53.5,,,,,,,
"WASTRES [C7 L2, synthetic peptide identical to light chain CDR L2 of mouse mAb C7]",,,,,4,49.8,inhibited endothelial cell sprouting,38,59,,
"GYYMH [C7/pc42 H1, synthetic peptide identical to heavy chain CDR H1 shared by mAb C7 and mAb pc42]",,,,,0,69.2,,58,24,119.6±35.5,> 50
